From ChEMBL document CHEMBL3507680, “University of Dundee, Gates Library screen for HepG2 cell viability” come the findings set out here.

A short description of this data set: Human HepG2 cell viability assay in 384 well format. It is filed as toxicity, cell-based. More on the design: dose 125 nL, time 70.5 hour; cytotoxicity at 70.5 h: concentration not given beside the values. As to conditions: HepG2 cells, read-out: Inhibition.
Turning to `Cc1ccccc1C(=O)N1CCC2(CC1)CC(c1cnn(C)c1)CO2` (configuration not stated), the cytotoxicity at 70.5 h was -11.9%.

In the case of `Cn1cc(C2COC3(CCN(C(=O)c4cnccn4)CC3)C2)cn1` (configuration not stated), the cytotoxicity at 70.5 h was -12.7%.

For the compound `Cn1cc(C2COC3(CCN(C(=O)c4cccc(O)c4)CC3)C2)cn1` (configuration not stated), the cytotoxicity at 70.5 h is -11.7%.

`O=S(=O)(c1ccccc1)N1CCC2(CCCN2Cc2ccccc2Cl)C1` (configuration not stated): the cytotoxicity at 70.5 h is 22.5%.

Regarding `Cc1ccc(CN2CCn3c(CNS(C)(=O)=O)nnc3C2)s1`, the cytotoxicity at 70.5 h worked out at 22.6%.

On to `CS(=O)(=O)NCc1nnc2n1CCN(Cc1ccncc1)C2`, for which the cytotoxicity at 70.5 h was 20.1%.

Take `O=S(=O)(c1ccccc1)N1CCC2(CCCN2Cc2ccc(Cl)cc2)C1` (configuration not stated): the cytotoxicity at 70.5 h was -7.11%.

On to `CS(=O)(=O)NCc1nnc2n1CCN(Cc1ccccn1)C2`, for which the cytotoxicity at 70.5 h was -9%.

Turning to `Cn1cc(C[C@H]2[C@H](O)CCN2Cc2ccc3c(c2)OCO3)cn1`, the cytotoxicity at 70.5 h was 6.92%.

With `O=C(Nc1ccccc1)[C@H]1C[C@@H]2CN(Cc3cccnc3)C[C@H]1O2`, the cytotoxicity at 70.5 h is -5.98%.

On to `O=C(c1ccnnc1)N1CCN2C[C@H](OCc3ccccn3)C[C@H]2C1`, for which the cytotoxicity at 70.5 h is -4.04%.

As for `c1cncc(CN2CCCC3(COCCN(c4nccs4)C3)C2)c1` (configuration not stated), the cytotoxicity at 70.5 h is -5.78%.

As to `COc1ccc(CN2C[C@H]3C[C@H](C(=O)Nc4cccnc4)[C@@H](C2)O3)cc1`, the cytotoxicity at 70.5 h was -3.51%.

Turning to `Cn1cc(CN2CC[C@@H](O)[C@@H]2Cc2ccccc2)cn1`, the cytotoxicity at 70.5 h is -7.36%.

Take `Cc1ccc(C(=O)N2CC[C@@]3(C[C@@H](NS(C)(=O)=O)CCO3)C2)s1`: the cytotoxicity at 70.5 h was 4.89%.

Take `Cc1nc(C(=O)N2CC[C@@]3(C[C@H](NS(C)(=O)=O)CCO3)C2)cs1`: the cytotoxicity at 70.5 h was -7.15%.

Consider `CC(C)CN1C(=O)CO[C@@H]2CN(C(=O)C3CCOC3)C[C@H]21` (some centres not stated), for which the cytotoxicity at 70.5 h was 39.9%.

Consider `COCCN1C(=O)[C@]2(CC[C@@H]3CN(S(=O)(=O)CC(C)C)C[C@@H]32)N=C1C`, for which the cytotoxicity at 70.5 h worked out at 13.1%.

As to `CCCNC(=O)c1ncn2c1CN(CC(C)C)S(=O)(=O)c1ccccc1-2`, the cytotoxicity at 70.5 h was determined as 13.4%.

`CS(=O)(=O)N[C@@H]1CCN(Cc2cccnc2)[C@H]1Cc1cccnc1`: the cytotoxicity at 70.5 h was 13.6%.

For `CC1=N[C@@]2(CC[C@@H]3CN(S(=O)(=O)CC(C)C)C[C@@H]32)C(=O)N1C`, the cytotoxicity at 70.5 h is -10.5%.

`CCN1Cc2c(C(=O)NC)ncn2-c2ccccc2S1(=O)=O`: the cytotoxicity at 70.5 h was -6.74%.

As to `Cc1nnc([C@@H]2CC[C@@H]3[C@@H](CCN3S(=O)(=O)C3CC3)O2)o1`, the cytotoxicity at 70.5 h is -14%.

As for `CC(C)CN1Cc2c(C(=O)NC3CC3)ncn2-c2ccccc2S1(=O)=O`, the cytotoxicity at 70.5 h is -15.8%.

On to `Cc1nc(COC[C@H]2CC[C@H]3[C@H](CCN3C(N)=O)O2)cs1`, for which the cytotoxicity at 70.5 h is -1.77%.

As for `CC(C)CN1C(=O)CO[C@@H]2CN(C(=O)C3CCOCC3)C[C@H]21`, the cytotoxicity at 70.5 h was -4.41%.

Take `COc1ccc(CN2Cc3cn(C)nc3C(COCC3CC3)C2)cc1` (configuration not stated): the cytotoxicity at 70.5 h was -4.4%.

`Cn1cc(CN2CCCC3(CCN(C(=O)c4ccoc4)C3)C2)cn1` (configuration not stated): the cytotoxicity at 70.5 h was -11%.

Regarding `Cc1cccc(C(=O)N2CCn3c(CN4CCN(C)CC4)cnc3C2)n1`, the cytotoxicity at 70.5 h was -7.95%.

On to `COCC(=O)N1CCC2(CCCN(Cc3cnn(C)c3)C2)C1` (configuration not stated), for which the cytotoxicity at 70.5 h is -3.28%.

Turning to `O=C(CC1CC1)N1Cc2nccn2CC(CN2CCCC2)C1` (configuration not stated), the cytotoxicity at 70.5 h came to 16.9%.

For `COc1ccc(C2CC(=O)NCc3nc4ccccn4c32)cn1` (configuration not stated), the cytotoxicity at 70.5 h is -1.02%.

With `COCCc1noc(CN2CCN(c3ccc(OC)cc3)C(=O)C2C)n1` (configuration not stated), the cytotoxicity at 70.5 h was -15.8%.

For the compound `O=C(c1ccc(CN2CCCCC2)cc1)N1Cc2cnn(CCO)c2C1`, the cytotoxicity at 70.5 h turned out to be 19.3%.

For `COC(=O)CNC(=O)c1ccc(OC2CCN(S(C)(=O)=O)CC2)c(Cl)c1`, the cytotoxicity at 70.5 h was -4.88%.

With `COc1ccc2c(c1)OCC(C(=O)NCc1nc3c(s1)CCCC3)C2` (configuration not stated), the cytotoxicity at 70.5 h is -8.87%.

Take `CCn1cncc1Cn1cccc(C(F)(F)F)c1=O`: the cytotoxicity at 70.5 h turned out to be 2.51%.

For `Cc1[nH]nc(CCC(=O)NCC2COc3ccccc3C2)c1C` (configuration not stated), the cytotoxicity at 70.5 h is -6.82%.

In the case of `CN(C)C(=O)COc1ccccc1CN1CCCC2(C1)CN(C)C(=O)O2` (configuration not stated), the cytotoxicity at 70.5 h is -7.63%.

As for `CSCCCNC(=O)C(c1cccc(F)c1)N(C)C` (configuration not stated), the cytotoxicity at 70.5 h is -4.98%.

Consider `Cc1cc(-c2nn(C)c(Cl)c2CN2CCN(C)C(C(=O)O)C2)no1` (configuration not stated), for which the cytotoxicity at 70.5 h was -5.8%.

With `N[C@@H](C(=O)N1CCN(c2ccccc2Cl)C(=O)C1)c1ccccc1`, the cytotoxicity at 70.5 h was -14.1%.

For the compound `CCc1nc(CN(C)C(=O)C2CC(=O)N(c3cccc(O)c3)C2)no1` (configuration not stated), the cytotoxicity at 70.5 h was determined as 3.57%.

Take `Cc1noc(CN2CC=C(c3cnn(C4CCS(=O)(=O)C4)c3)CC2)n1` (configuration not stated): the cytotoxicity at 70.5 h came to 27.9%.

On to `COC(=O)N1CCCCC1C(=O)N(C)Cc1cc(-c2cccnc2)no1` (configuration not stated), for which the cytotoxicity at 70.5 h was -8.4%.

Regarding `CCc1nc(C)c(C(=O)N2CCNCC2C(=O)NCc2ccncc2)o1` (configuration not stated), the cytotoxicity at 70.5 h is -5.31%.

`CCn1nc(C)c(CCNC(=O)C2CCCN(C(C)=O)C2)c1C` (configuration not stated): the cytotoxicity at 70.5 h was -8.81%.

As for `c1ccc(C2CN(c3ncnc4[nH]cnc34)CCO2)cc1` (configuration not stated), the cytotoxicity at 70.5 h was -8.36%.

Take `CCC[C@H]1CN(S(=O)(=O)c2cc(C)ccc2C)C[C@@H]1N`: the cytotoxicity at 70.5 h is -0.438%.

On to `O=C(c1ccc(-c2ccoc2)nc1)N1CCCN(C2CCCCC2)CC1`, for which the cytotoxicity at 70.5 h is -12.9%.

As to `O=C(NCc1cccnc1N1CCc2ccccc2C1)c1cc(=O)[nH][nH]1`, the cytotoxicity at 70.5 h was -3.06%.

Consider `CS(=O)(=O)N1C[C@@H]2CC[C@H](C1)N(C(=O)Cn1nc3ccccc3n1)C2`, for which the cytotoxicity at 70.5 h came to 20.9%.

For `CCCN(Cc1nc(-c2ccoc2)oc1C)CC1CCCO1` (configuration not stated), the cytotoxicity at 70.5 h is -6%.

As to `COc1cc(-c2cnnc(NCC3CC3)n2)cc(OC)c1OC`, the cytotoxicity at 70.5 h was 5.52%.

As for `O=C1N(Cc2cccc(F)c2F)CCCC1(O)CNCc1ccccc1` (configuration not stated), the cytotoxicity at 70.5 h was found to be 19.6%.

For `CCc1ncc2c(n1)CN(C(=O)CNC(=O)C(C)C)C2`, the cytotoxicity at 70.5 h was 22.7%.

With `CN1C(=O)CC(C(=O)O)C12CCN(Cc1cc(Cl)ccc1F)CC2` (configuration not stated), the cytotoxicity at 70.5 h was 8.5%.

Turning to `Fc1ccc(N2CCCN(Cc3ccc(-c4cc[nH]n4)o3)CC2)cc1`, the cytotoxicity at 70.5 h is -0.367%.

With `COc1cccc2ccc(CN3CCN(c4ncccc4C)CC3)nc12`, the cytotoxicity at 70.5 h is -7.71%.

Consider `Cc1c[nH]c(C(=O)N2C[C@H]3CC[C@@H]2CN(Cc2cscn2)C3)n1`, for which the cytotoxicity at 70.5 h is -15.6%.

Turning to `COCC(Nc1ncnc2sc(C(=O)O)c(C)c12)c1ccnn1C` (configuration not stated), the cytotoxicity at 70.5 h worked out at 0.588%.

On to `OC(c1cccs1)C1CCN(c2ncccn2)CC1` (configuration not stated), for which the cytotoxicity at 70.5 h was -8.6%.

In the case of `CN(Cc1nc(C2CC2)no1)C(=O)C1COc2ccccc2C1` (configuration not stated), the cytotoxicity at 70.5 h is -0.624%.

With `CN(C)C(=O)N1C[C@@H]2CC[C@H](C1)N(Cc1nnc(C3CC3)o1)C2`, the cytotoxicity at 70.5 h is -16.8%.

As for `CSCCCNC(=O)C(c1ccccc1C)N(C)C` (configuration not stated), the cytotoxicity at 70.5 h is -6.07%.

On to `NC(=O)c1cccc(CC2CCN(C(=O)CCc3cccc(F)c3)C2)c1` (configuration not stated), for which the cytotoxicity at 70.5 h is -8.51%.

As to `CCc1cccc(NC(=O)CCN2CC=C(c3cnn(C)c3)CC2)c1`, the cytotoxicity at 70.5 h is -5.53%.

Turning to `CS(=O)(=O)NCc1nnc2n1CCN(Cc1cccs1)CC2`, the cytotoxicity at 70.5 h is -4.32%.

With `O=C(NC1CCCCC1)N1CCc2onc(COc3cccnc3)c2C1`, the cytotoxicity at 70.5 h was -6.55%.

With `O=C(c1cccs1)N1CCCC2(COCCN(c3cccnc3)C2)C1` (configuration not stated), the cytotoxicity at 70.5 h was -6.3%.

As for `O=C(c1ccc[nH]1)N1CCc2onc(COc3cccnc3)c2C1`, the cytotoxicity at 70.5 h was -4.03%.

With `Cc1ccccc1CN1C[C@@H](C(=O)N2CCCCO2)C[C@H]2OCC[C@H]21`, the cytotoxicity at 70.5 h was -7.46%.

Consider `CS(=O)(=O)N[C@H]1CCO[C@]2(CCN(C(=O)c3ccccn3)C2)C1`, for which the cytotoxicity at 70.5 h is -3.91%.

For the compound `Cc1ccc(C(=O)N2C[C@@H]3OCCN(C)[C@@H]3C2)cn1`, the cytotoxicity at 70.5 h is -2.77%.

Turning to `CNC(=O)[C@H]1C[C@@H]2CCN(Cc3nccs3)C[C@H]2O1`, the cytotoxicity at 70.5 h is -6.34%.

As for `Fc1cccc(CNCC2OCCc3cn(CC4CCOCC4)nc32)c1` (configuration not stated), the cytotoxicity at 70.5 h is -5.44%.

Turning to `O=C1CO[C@@H]2CN(CC3CC3)C[C@H]2N1Cc1cccc(F)c1`, the cytotoxicity at 70.5 h was determined as 14.4%.

For the compound `COc1ccc(CN2CCCn3cnc(COC(C)C)c3C2)cc1`, the cytotoxicity at 70.5 h was 23.2%.

Turning to `CN1CC(=O)N(c2ccccc2)CC12CCN(S(C)(=O)=O)C2` (configuration not stated), the cytotoxicity at 70.5 h turned out to be 20.4%.

Consider `Cc1nc(CN2C[C@@H]3CN(C(=O)c4ccco4)C[C@@H]3C2=O)cs1`, for which the cytotoxicity at 70.5 h was -3.99%.

On to `c1cnc(N2CCOCC3(CCCN(Cc4cccs4)C3)C2)nc1` (configuration not stated), for which the cytotoxicity at 70.5 h was found to be 19.9%.

In the case of `c1cncc(N2CCOCC3(CN(Cc4cccs4)CCO3)C2)c1` (configuration not stated), the cytotoxicity at 70.5 h amounted to 19.2%.

Turning to `Cn1cc(CN2CCCC3(COCCN(c4cccnc4)C3)C2)cn1` (configuration not stated), the cytotoxicity at 70.5 h was -6.27%.

`CC(C)CCN1C[C@H]2C[C@H](C(=O)Nc3cccnc3)[C@@H](C1)O2`: the cytotoxicity at 70.5 h was -6.02%.

Take `O=C([C@H]1C[C@H]2OCC[C@H]2N(Cc2ccccc2F)C1)N1CCCCO1`: the cytotoxicity at 70.5 h is -7.79%.

As for `O=S(=O)(c1ccccc1)N1CCC2(CCCN2Cc2cccnc2)C1` (configuration not stated), the cytotoxicity at 70.5 h was found to be 10.9%.

For `Cc1noc(C)c1CN1Cc2cn(C)nc2C(COCC2CC2)C1` (configuration not stated), the cytotoxicity at 70.5 h is 14.4%.

On to `CS(=O)(=O)N[C@@H]1CCN(Cc2cccnc2)[C@H]1Cc1ccccc1`, for which the cytotoxicity at 70.5 h is -11.7%.

As for `O=C(Nc1cccnc1)[C@H]1C[C@@H]2CCN(Cc3nccs3)C[C@@H]2O1`, the cytotoxicity at 70.5 h was -15.1%.

For `Cc1ncccc1NC(=O)[C@@H]1C[C@@H]2CCN(Cc3cccs3)C[C@H]2O1`, the cytotoxicity at 70.5 h is -12.3%.

For `CN1CCN(C2COC3(CCN(Cc4ccc(F)cc4)CC3)C2)CC1` (configuration not stated), the cytotoxicity at 70.5 h was -11.8%.

`Cn1cc(CN2CCCC3(CCN(C(=O)c4ccccn4)C3)C2)cn1` (configuration not stated): the cytotoxicity at 70.5 h is -12%.
